Data published in BigSolDB 2.1.

CC(=O)NC1(C)CCC2CC1C(C)=NC2(C)C (stereo not given)
solubility (mole fraction)
Settings | 298.15 K | 303.15 K | 308.15 K | 313.15 K | 318.15 K
in 2-ethoxyethanol | 0.00185 | 0.00217 | 0.00248 | 0.00282 | 0.00322
in acetone | 0.00359 | 0.00388 | 0.00411 | 0.00445 | 0.00493
in acetonitrile | 0.0257 | 0.0265 | 0.0275 | 0.0292 | 0.0305
in acrylonitrile | 0.00442 | 0.00458 | 0.00487 | 0.00528 | 0.00581
in ethanol | 0.00153 | 0.00184 | 0.00211 | 0.00244 | 0.00284
in isopropanol | 0.00134 | 0.00155 | 0.00182 | 0.00214 | 0.00243
in methanol | 0.00945 | 0.0103 | 0.0111 | 0.0122 | 0.0142
in n-butanol | 0.00138 | 0.00164 | 0.00191 | 0.00219 | 0.00257
in n-propanol | 0.00144 | 0.00171 | 0.00196 | 0.00228 | 0.00264
in propionitrile | 0.00392 | 0.00416 | 0.0044 | 0.00477 | 0.00526
in propylene glycol | 0.0197 | 0.0206 | 0.022 | 0.0232 | 0.0251
in water | 0.0012 | 0.00142 | 0.0016 | 0.00182 | 0.0021

CC1(N=C(O)c2ccccc2)CCC2CC1C(c1ccccc1)=[NH+]C2(C)C.[O-][Cl+3]([O-])([O-])[O-] (stereo not given)
solubility (mole fraction)
Settings | 298.15 K | 303.15 K | 308.15 K | 313.15 K | 318.15 K
in 2-ethoxyethanol | 0.00256 | 0.00297 | 0.00348 | 0.0041 | 0.0048
in acetone | 0.00275 | 0.00308 | 0.00363 | 0.00425 | 0.00495
in acetonitrile | 0.00307 | 0.0035 | 0.00421 | 0.00488 | 0.00572
in acrylonitrile | 0.00592 | 0.00661 | 0.00743 | 0.00856 | 0.0104
in ethanol | 0.0015 | 0.00182 | 0.00223 | 0.00264 | 0.00316
in isopropanol | 0.000845 | 0.00103 | 0.00132 | 0.00163 | 0.00199
in methanol | 0.00289 | 0.00327 | 0.0038 | 0.00445 | 0.00534
in n-butanol | 0.000928 | 0.00113 | 0.00146 | 0.00178 | 0.00221
in n-propanol | 0.0013 | 0.0016 | 0.00193 | 0.00232 | 0.00288
in propionitrile | 0.00186 | 0.00215 | 0.00254 | 0.00305 | 0.00346
in propylene glycol | 0.0122 | 0.0132 | 0.0147 | 0.0164 | 0.0187
in water | 3.8e-05 | 5.7e-05 | 7.7e-05 | 9.9e-05 | 0.000115
